Measured values taken from patent US20200352921A1, “ARYL-SULFONAMIDE AND ARYL-SULFONE DERIVATIVES AS TRPML MODULATORS” (CalyGene Biotechnolgy, Inc., priority 2017, published 2020).
Where two headings read alike, the source gives them in different places.

Columns and labels:
Format in all cases: cell-based
cultured parietal cells = test: Gastric acid secretion assay (histamine-stimulated VAC formation)
Experimental: Acid secretion was measured in cultured parietal cells upon histamine stimulation. Briefly, after mucosal digestion of isolated glands, supernatants were pelleted by centrifugation at 200×g, washed three times with HEPES-MEM, and re-suspended in Medium A. Approximately 70% of the total gastric cells suspended in Medium A were parietal cells. The cells were plated onto Matrigel-coated 18-mm round coverslips or 35-mm dishes and incubated at 37° C. In cultured parietal cells, upon secretagogue stimulation, apical canalicular membranes are engulfed into the cell to form multiple actin-wrapped vacuoles known as vacuolar apical compartments (VACs), which remain separate from the basolateral membrane and free TVs in the cytosol (Nakada, S. L., Crothers, J. M., Jr., Machen, T. E., and Forte, J. G. (2012). Apical vacuole formation by gastric parietal cells in primary culture: effect of low extracellular Ca2+. American journal of physiology Cell physiology 303, C1301-1311.). […] In resting WT cells, small (diameter <2 μm) VACs were observed occasionally with a total surface area <10 μm^2. VACs formed within 10-20 min after bath application of histamine and then fused together to generate one or a few large VACs (up to 8 μm in diameter; total VAC surface area >50 μm^2). The apical membrane vacuole surface area during resting and stimulated states was measured for all VACs that were visible in multiple (3-6) Z-cross sections. Data were analyzed in ImageJ (NIH).
In this acid secretion assay, histamine-stimulated VAC formation was abolished by ML-S4 at 10 μM (Zhang X, Cheng X, Yu L, Yang J, Calvo R, Patnaik S, Hu X, Gao Q, Yang M, Lawas M, Delling M, Marugan J, Ferrer M, and Xu H. 2016, PMID: 27357649).

ML1 channel = molecular target: T1, ML1 channel (Homo sapiens, UniProt Q9GZU1); test: Endolysosomal electrophysiology (whole-endolysosome patch-clamp)
T1 construct: host or cells: unnamed cells treated with vacuolin-1; isolated enlarged endolysosomes
Experimental: Endolysosomal electrophysiology was performed in isolated endolysosomes using a modified patch-clamp method. Briefly, cells were treated with 1 μM vacuolin-1 for 2-5 h to increase the size of endosomes and lysosomes. Whole-endolysosome recordings were performed on isolated enlarged LELs. The bath (internal/cytoplasmic) solution contained 140 mM K-gluconate, 4 mM NaCl, 1 mM EGTA, 2 mM Na2-ATP, 2 mM MgCl2, 0.39 mM CaCl2), 0.2 mM GTP and 10 mM HEPES (pH adjusted with KOH to 7.2; free [Ca^2+]i˜100 nM based on the Maxchelator software (http://maxchelator.stanford.edu/)). The pipette (luminal) solution consisted of a ‘Low pH Tyrode's solution with 145 mM NaCl, 5 mM KCl, 2 mM CaCl2), 1 mM MgCl2, 10 mM HEPES, 10 mM MES and 10 mM glucose (pH 4.6). All bath solutions were applied via a perfusion system to achieve a complete solution exchange within a few seconds. Data were collected using an Axopatch 2A patch clamp amplifier, Digidata 1440 and pClamp 10.0 software (Axon Instruments). Whole-cell currents were digitized at 10 kHz and filtered at 2 kHz. All experiments were conducted at room temperature (21-23° C.), and all recordings were analyzed with pClamp 10.0 and Origin 8.0 (OriginLab, Northampton, Mass., USA). ML1 channel activity was induced by synthetic agonists ML-SA1 or […], and inhibited by ML-S13 or ML-S14.
In this electrophysiology assays, compounds were tested with both basal and agonist-induced ML1 currents. Examples B11, B11a, B11b, B40, B41, B44, B5, B47, B48, B49, B50, B51, B54, B57, B58, B59, B62, B63, B68, B69, B71, B72, B75, B75, and B76 were tested with basal ML1 currents. […] In particular, Examples B11, B11a and B11b inhibited basal ML1 currents with IC50<100 nM. Examples B11, B11a and B11b are shown below. Examples B1-4, B2-1, B-2-2, B2-3, B2-4, 3-4, B5, B6-2, B9-4, B-10, B-10-4, B11, B12, B13, B14, B15, B16, B18, B19, B20, B21, B22, B23, B25, B26, B27, B28, B29, B30, B32, B34, B40, B41, B44, B45, B46, B47, B48, B49, B50, B51, B52, B59, and B66 were tested in ML1 currents activated by ML1 agonists (ML-SA1 or ML-SA5). […] In particular, B11 inhibited the ML-SA1-activated currents with IC50<1,000 nM. Example B11 is shown below.

ML1 = molecular target: T2, ML1 (UniProt Q99J21); test: Lysosomal Ca2+ imaging in Tet-On HEK-GCaMP3-ML1 cells; conditions: zero Ca2+ solution, ML-SA1 trigger, read-out: inhibition of ML-SA1-induced lysosomal Ca2+ release, IC50
T2 construct: fused on or other part: GCaMP3 (genetically encoded Ca2+ indicator) fused to ML1 as the reporter handle; in the published construct it sits at the N-terminus
Experimental: GCaMP3-ML1 expression was induced in Tet-On HEK-GCaMP3-ML1 cells 20-24 h prior to experiments using […] doxycycline. GCaMP3-ML1 fluorescence was monitored at an excitation wavelength of 470 nm (F470) using an EasyRatio Pro system (PTI). Cells were bathed in Tyrode's solution containing 145 mM NaCl, 5 mM KCl, 2 mM CaCl2), 1 mM MgCl2, 10 mM Glucose, and 20 mM Hepes (pH 7.4). Lysosomal Ca^2+ release was measured in a zero Ca^2+ solution containing 145 mM NaCl, 5 mM KCl, 3 mM MgCl2, 10 mM glucose, 1 mM EGTA, and 20 mM HEPES (pH 7.4). Ca^2+ concentration in the nominally free Ca^2+ solution is estimated to be 1-10 μM. With 1 mM EGTA, the free Ca^2+ concentration is estimated to be <10 nM based on the Maxchelator software (http://maxchelator.stanford.edu/). Experiments were carried out 0.5 to 6 hrs after plating. ML1-mediated lysosomal Ca^2+ release was triggered by synthetic agonists ML-SA1, and inhibited by ML-S13 and aforementioned testing compounds.

[1] = basal ML1 currents, isolated enlarged endolysosomes, read-out: inhibition of basal ML1 currents, IC50

T1 sequence (Q9GZU1 whole entry): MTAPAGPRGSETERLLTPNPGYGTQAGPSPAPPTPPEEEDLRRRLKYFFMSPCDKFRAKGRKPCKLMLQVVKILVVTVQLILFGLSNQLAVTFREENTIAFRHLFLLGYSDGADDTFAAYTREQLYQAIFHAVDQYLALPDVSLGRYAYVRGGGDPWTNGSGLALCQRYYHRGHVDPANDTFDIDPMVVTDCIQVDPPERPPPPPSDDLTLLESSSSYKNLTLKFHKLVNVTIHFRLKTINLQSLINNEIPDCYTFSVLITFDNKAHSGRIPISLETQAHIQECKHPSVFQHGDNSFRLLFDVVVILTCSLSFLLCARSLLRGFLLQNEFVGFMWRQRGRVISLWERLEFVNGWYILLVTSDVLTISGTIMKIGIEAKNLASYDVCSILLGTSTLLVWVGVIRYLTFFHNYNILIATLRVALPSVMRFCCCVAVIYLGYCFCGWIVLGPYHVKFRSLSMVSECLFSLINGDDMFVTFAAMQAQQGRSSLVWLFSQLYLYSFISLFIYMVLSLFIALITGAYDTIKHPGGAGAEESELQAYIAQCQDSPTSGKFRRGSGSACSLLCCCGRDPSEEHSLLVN

IC50 (ML1 channel; [1])	IC50 (ML1 channel; currents activated by ML1 agonist ML-SA1, read-out: inhibition of ML-SA1-activated ML1 currents, IC50)	IC50 (ML1)	SMILES	histamine-induced VAC formation (cultured parietal cells; at 0.5 μM)	histamine-induced VAC formation (cultured parietal cells; at 2 μM)
< 100 nM	< 1000 nM		Cc1ccc(S(=O)(=O)N2c3cc(F)ccc3CCC2CCc2ccc(Cl)cc2F)cc1 (stereo not drawn) [Example B11, 2-(4-Chloro-2-fluorophenethyl)-7-fluoro-1-tosyl-1,2,3,4-tetrahydroquinoline]	significantly inhibited	abolished
< 100 nM			Cc1ccc(S(=O)(=O)N2c3cc(F)ccc3CC[C@@H]2CCc2ccc(Cl)cc2F)cc1 [Example B11a]		
< 100 nM		< 1000 nM	Cc1ccc(S(=O)(=O)N2c3cc(F)ccc3CC[C@H]2CCc2ccc(Cl)cc2F)cc1 [Example B11b]	significantly inhibited	abolished
